Reference: patent US12453709B2, “Compositions and methods for treating autism” (priority 2013, dated 2025)

Tests used:
Assay type in all cases: in vivo, human
[1] = tested on: male patients diagnosed with autism; test: Study HT 02-121: Social Responsiveness Scale (SRS-2); details: for SRS-2 Total T-Score: patients changing category of severity: placebo 2; for SRS-2 DSM-5 Social, Communication and Interaction T-score: patients with changes in severity categorization / SRS-2 Social Communication T-score: patients with categorical improvement / SRS-2 Social Motivation T-score: patients with categorical changes in clinical severity: placebo 3
Method: (§1) This clinical study was a randomized double-blind, placebo-controlled two-cohort, 4-week dose-escalation study that incorporated two open-label treatment groups to assess the safety and efficacy of L1-79 100 mg and 200 mg TID in male patients between the ages of […] years of age diagnosed with autism. The first cohort of 20 patients was comprised of three groups of patients: The first group of five patients received open-label L1-79 100 mg TID and underwent PK and EKG assessments. The remaining two groups in this cohort consisted of 15 patients randomized on a 2:1 basis to receive L1-79 100 mg TID or placebo. The PK and safety data from the open-label L1-79 100 mg TID group was submitted to FDA for review and acceptance before the second cohort was enrolled. The second cohort was procedurally identical to the first. The second cohort of 20 patients was comprised of the same three groups of patients but a dose of 200 mg TID was used instead of 100 mg TID. The key inclusion criteria were as follows: (1) males between 13 and 21 years of age, (2) DSM-5 compliant diagnosis of autism spectrum disorder, confirmed by the Autistic Diagnosis Interview Review (ADIR), and by an ADOS-2 score consistent with a diagnosis of autism, (3) must have been stable on no more than one concomitant medication and no planned changes in psychosocial interventions during the study.
(§2) The primary efficacy endpoint was the determination of the clinical improvement by the investigator as documented by the Clinical Global Impression (CGI) rating scales. Additional efficacy endpoints included: (1) changes from baseline in the Socialization and Communication Domains of the Vineland Adaptive Behavior Scales, Second Edition (VABS II) parent/caregiver rating form, (2) changes from baseline in the ADOS-2 Total Score and subscores, (3) changes in the Social Responsiveness Scale, Second Edition (SRS-2) Total Score and subscales, (4) changes in the ABC-C domains, (5) changes in the Repetitive Behavior Scale-Revised (RBS-R) Total Score and subscales. Given the exploratory design of this study only descriptive statistics were planned.
(§3) In the preliminary study, all forms were completed at the study site in the presence of the investigator. In Cohort 1 of the present study, the VABS-II, SRS-2, ABC-C and RBS-R were filled out at home by the patient/patient's families prior to treatment visits and returned at treatment visits in order to expedite the execution of the study.
This definition is consistent with accepted standards for judging mid and long term outcomes for experimental treatments studied in nearly every disorder, including autism. […] In ASD, children often go through periods of mild to moderate improvement or worsening in their behavioral, social and emotional symptom regulation related to a variety of identifiable and as yet unidentified factors (Boso, 2010; Jyonouchi, 2011). Thus, in a study of short duration, a ‘baseline’ measure may in fact be at the apex, midpoint or nadir of one of these oscillations.
The Social Communication and Interaction scale are comprised of the DSM-5 criteria that make up the social communication and social interaction deficits required for the diagnosis of ASD.

[2] = tested on: male patients diagnosed with autism; test: Study HT 02-121: Clinical Global Impression (CGI) rating scales; details: for CGI-I Mean Change from Baseline / CGI-I Treatment effect versus placebo / CGI-I change from Baseline, median / CGI-S Mean Change from Baseline / CGI-S Treatment effect versus placebo / CGI-S change from Baseline, median: Week 4/LOCF
Method: as §1
as §2, with “planned. […]” for “planned.”
Responder definitions for CGI-S were defined as improvement only (instead of improvement or no change) since, unlike the other measures which were performed weekly, the CGI-S requires the clinician to give an overall assessment of the patients' clinical symptom severity based on all of the outcome measures and their movement over the entirety of the study.

[3] = tested on: male patients diagnosed with autism; test: Study HT 02-121: Autism Diagnostic Observation Schedule (ADOS-2); details: for ADOS-2 Restricted and Repetitive Behavior Mean Change from Screening / ADOS-2 Restricted and Repetitive Behavior Treatment effect versus placebo / ADOS-2 Restricted and Repetitive Behavior change, median / ADOS-2 Social Affect Mean Change from Screening / ADOS-2 Social Affect Treatment effect versus placebo / ADOS-2 Social Affect change, median / ADOS-2 Total Score Mean Change from Screening / ADOS-2 Total Score Treatment effect versus placebo / ADOS-2 Total Score change from Screening, median: Week 4/LOCF
Method: as §1, §2, §3

Which results are given for `CC(N)(Cc1ccc(O)cc1)C(=O)O` (racemic) [L1-79, α-methyl-DL-tyrosine]?
SRS-2 Total T-Score: patients changing category of severity ([1]; 100 mg group): 2 patients; SRS-2 DSM-5 Social, Communication and Interaction T-score: patients with changes in severity categorization ([1]; 100 mg group): 2 patients; SRS-2 Social Communication T-score: patients with categorical improvement ([1]; 100 mg group): 3 patients; SRS-2 Social Motivation T-score: patients with categorical changes in clinical severity ([1]; 100 mg group): 4 patients; SRS-2 Total T-Score: patients changing category of severity ([1]; 200 mg group): 3 patients; SRS-2 DSM-5 Social, Communication and Interaction T-score: patients with changes in severity categorization ([1]; 200 mg group): 4 patients; SRS-2 Social Communication T-score: patients with categorical improvement ([1]; 200 mg group): 4 patients; SRS-2 Social Motivation T-score: patients with categorical changes in clinical severity ([1]; 200 mg group): 6 patients; SRS-2 DSM-5 Restricted and Repetitive Behavior T-score Mean Change from Baseline ([1]; DB 100 mg TID, Week 4/LOCF): −0.4; SRS-2 DSM-5 Restricted and Repetitive Behavior T-score Treatment effect versus placebo ([1]; DB 100 mg TID, Week 4/LOCF): 7.2; SRS-2 DSM-5 Restricted and Repetitive Behavior T-score change, median ([1]; DB 100 mg TID, Week 4/LOCF): −3, 0, 5; SRS-2 DSM-5 Social, Communication and Interaction T-score Mean Change from Baseline ([1]; DB 100 mg TID, Week 4/LOCF): 0.6; SRS-2 DSM-5 Social, Communication and Interaction T-score Treatment effect versus placebo ([1]; DB 100 mg TID, Week 4/LOCF): 4.8; SRS-2 DSM-5 Social, Communication and Interaction T-score change, median ([1]; DB 100 mg TID, Week 4/LOCF): −3, 2, 5; SRS-2 Social Communication T-score Mean Change from Baseline ([1]; DB 100 mg TID, Week 4/LOCF): 1.1; SRS-2 Social Communication T-score Treatment effect versus placebo ([1]; DB 100 mg TID, Week 4/LOCF): 6.0; SRS-2 Social Communication T-score change, median ([1]; DB 100 mg TID, Week 4/LOCF): −5, 0, 6; SRS-2 Social-Motivation T-score Mean Change from Baseline ([1]; DB 100 mg TID, Week 4/LOCF): −1.4; SRS-2 Social-Motivation T-score Treatment effect versus placebo ([1]; DB 100 mg TID, Week 4/LOCF): 0.3; SRS-2 Social-Motivation T-score change, median ([1]; DB 100 mg TID, Week 4/LOCF): −7, −4, 8; SRS-2 Total T-score Mean Change from Baseline ([1]; DB 100 mg TID, Week 4/LOCF): −0.4; SRS-2 Total T-score Treatment effect versus placebo ([1]; DB 100 mg TID, Week 4/LOCF): 4.8; SRS-2 Total T-score change, median ([1]; DB 100 mg TID, Week 4/LOCF): −3, −1, 3; SRS-2 DSM-5 Restricted and Repetitive Behavior T-score Mean Change from Baseline ([1]; DB 200 mg TID, Week 4/LOCF): −7.6; SRS-2 DSM-5 Restricted and Repetitive Behavior T-score Treatment effect versus placebo ([1]; DB 200 mg TID, Week 4/LOCF): −0.0; SRS-2 DSM-5 Restricted and Repetitive Behavior T-score change, median ([1]; DB 200 mg TID, Week 4/LOCF): −22, −3, 3; SRS-2 DSM-5 Social, Communication and Interaction T-score Mean Change from Baseline ([1]; DB 200 mg TID, Week 4/LOCF): −7.6; SRS-2 DSM-5 Social, Communication and Interaction T-score Treatment effect versus placebo ([1]; DB 200 mg TID, Week 4/LOCF): −3.4; SRS-2 DSM-5 Social, Communication and Interaction T-score change, median ([1]; DB 200 mg TID, Week 4/LOCF): −18, −3, 0; SRS-2 Social Communication T-score Mean Change from Baseline ([1]; DB 200 mg TID, Week 4/LOCF): −8.3; SRS-2 Social Communication T-score Treatment effect versus placebo ([1]; DB 200 mg TID, Week 4/LOCF): −3.4; SRS-2 Social Communication T-score change, median ([1]; DB 200 mg TID, Week 4/LOCF): −16, −4, −1; SRS-2 Social-Motivation T-score Mean Change from Baseline ([1]; DB 200 mg TID, Week 4/LOCF): −10.6; SRS-2 Social-Motivation T-score Treatment effect versus placebo ([1]; DB 200 mg TID, Week 4/LOCF): −8.9; SRS-2 Social-Motivation T-score change, median ([1]; DB 200 mg TID, Week 4/LOCF): −21, −6, 0; SRS-2 Total T-score Mean Change from Baseline ([1]; DB 200 mg TID, Week 4/LOCF): −7.7; SRS-2 Total T-score Treatment effect versus placebo ([1]; DB 200 mg TID, Week 4/LOCF): −2.5; SRS-2 Total T-score change, median ([1]; DB 200 mg TID, Week 4/LOCF): −19, 3, 0; average improvement of SRS-2 Total, DSM-5 Social Communication and Interaction, Social Communication and Social Motivation T-scores ([1]; L1-79 200 mg treated group): ~8 points; SRS-2 T-scores: magnitude and number/percent of responders compared to placebo ([1]; L1-79 200 mg, Week 4/LOCF): greater; responder analysis for CGI-S ([2]; 100 mg and 200 mg groups vs placebo, Week 4): clear dose response trend of improvement; mean improvement on overall CGI-S versus placebo and 100 mg groups ([2]; 200 mg group, Week 4 or LOCF): 0.5 point; CGI-I Mean Change from Baseline ([2]; DB 100 mg TID): −0.6; CGI-I Treatment effect versus placebo ([2]; DB 100 mg TID): −0.4; CGI-I change from Baseline, median ([2]; DB 100 mg TID): −1, −1, 0; CGI-S Mean Change from Baseline ([2]; DB 100 mg TID): −0.3; CGI-S Treatment effect versus placebo ([2]; DB 100 mg TID): −0.0; CGI-S change from Baseline, median ([2]; DB 100 mg TID): −1, −0, 0; CGI-I Mean Change from Baseline ([2]; DB 200 mg TID): −0.5; CGI-I Treatment effect versus placebo ([2]; DB 200 mg TID): −0.3; CGI-I change from Baseline, median ([2]; DB 200 mg TID): −1, 0, 0; CGI-S Mean Change from Baseline ([2]; DB 200 mg TID): −0.8; CGI-S Treatment effect versus placebo ([2]; DB 200 mg TID): −0.5; CGI-S change from Baseline, median ([2]; DB 200 mg TID): −2, −1, 0; change in the CGI-S compared to baseline ([2]; less than one month of treatment, blinded assessment): nearly one-point change; ADOS-2 Restricted and Repetitive Behavior Mean Change from Screening ([3]; DB 100 mg TID): 0.3; ADOS-2 Restricted and Repetitive Behavior Treatment effect versus placebo ([3]; DB 100 mg TID): 0.5; ADOS-2 Restricted and Repetitive Behavior change, median ([3]; DB 100 mg TID): −1, 0, 1; ADOS-2 Social Affect Mean Change from Screening ([3]; DB 100 mg TID): −0.9; ADOS-2 Social Affect Treatment effect versus placebo ([3]; DB 100 mg TID): −1.0; ADOS-2 Social Affect change, median ([3]; DB 100 mg TID): −2, 0, 1; ADOS-2 Total Score Mean Change from Screening ([3]; DB 100 mg TID): −0.6; ADOS-2 Total Score Treatment effect versus placebo ([3]; DB 100 mg TID): −0.6; ADOS-2 Total Score change from Screening, median ([3]; DB 100 mg TID): −1, 0, 0; ADOS-2 Restricted and Repetitive Behavior Mean Change from Screening ([3]; DB 200 mg TID): −1.0; ADOS-2 Restricted and Repetitive Behavior Treatment effect versus placebo ([3]; DB 200 mg TID): −0.9; ADOS-2 Restricted and Repetitive Behavior change, median ([3]; DB 200 mg TID): −2, −1, 0; ADOS-2 Social Affect Mean Change from Screening ([3]; DB 200 mg TID): 0.0; ADOS-2 Social Affect Treatment effect versus placebo ([3]; DB 200 mg TID): −0.1; ADOS-2 Social Affect change, median ([3]; DB 200 mg TID): −1, 1, 1; ADOS-2 Total Score Mean Change from Screening ([3]; DB 200 mg TID): −1.0; ADOS-2 Total Score Treatment effect versus placebo ([3]; DB 200 mg TID): −1.0; ADOS-2 Total Score change from Screening, median ([3]; DB 200 mg TID): −1, −1, 0; improvement from baseline in ADOS-2 scores ([3]; less than one month of treatment): nearly one point
